Assay results reported in patent publication US20240116985A1, “STAPLED PEPTIDES AND METHODS THEREOF” (priority 2020, published 2024).
In brackets after ≈: the same amount, converted by molar mass. Read-outs that look alike come from different tables or passages of the source.

Columns and labels:
[1] = biological target: T1, full-length beta-Catenin (Uniprot ID P35222) (Homo sapiens, UniProt P35222); assay: Fluorescence polarization IC50 (beta-catenin / 5FAM-TCF4 10-53 competition); type: binding; settings: fluorescence polarization
T1 construct: 10 nM full-length beta-Catenin (Uniprot ID P35222)
T1 sequence (P35222 1-781): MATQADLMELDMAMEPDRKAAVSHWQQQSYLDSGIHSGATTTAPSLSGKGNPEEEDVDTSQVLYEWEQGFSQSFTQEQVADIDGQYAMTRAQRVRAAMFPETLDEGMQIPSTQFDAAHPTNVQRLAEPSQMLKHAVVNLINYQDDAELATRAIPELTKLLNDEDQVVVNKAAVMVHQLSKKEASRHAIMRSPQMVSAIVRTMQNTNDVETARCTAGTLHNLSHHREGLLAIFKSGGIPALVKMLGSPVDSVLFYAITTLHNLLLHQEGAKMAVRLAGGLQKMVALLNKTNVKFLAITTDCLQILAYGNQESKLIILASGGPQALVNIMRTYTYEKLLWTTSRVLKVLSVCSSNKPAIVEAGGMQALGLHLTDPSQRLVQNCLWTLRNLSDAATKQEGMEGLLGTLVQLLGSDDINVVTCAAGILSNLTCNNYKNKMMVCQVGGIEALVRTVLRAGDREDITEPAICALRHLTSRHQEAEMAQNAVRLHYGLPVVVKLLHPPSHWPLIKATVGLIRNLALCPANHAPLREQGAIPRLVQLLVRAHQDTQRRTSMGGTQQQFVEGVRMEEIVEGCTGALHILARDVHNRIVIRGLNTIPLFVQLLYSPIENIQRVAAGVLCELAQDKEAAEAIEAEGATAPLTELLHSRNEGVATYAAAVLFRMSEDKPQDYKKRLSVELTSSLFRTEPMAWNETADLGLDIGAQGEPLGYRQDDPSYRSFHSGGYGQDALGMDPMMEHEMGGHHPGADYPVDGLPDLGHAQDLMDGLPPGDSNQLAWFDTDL

[2] = Solubility in PBS; type: physicochemical
Procedure, shortened: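 Steps: ultracentrifuge the peptide PBS solution, inject the supernatant on HPLC, inject a 50 μM peptide DMSO solution as reference, then calculate solubility as area ratio (PBS/DMSO) × 50 uM.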

[3] = beta-catenin, read-out: FP EC50

## CC(C)C[C@@H]1NC(=O)[C@H](Cc2ccccc2)NC(=O)[C@H](C)NC(=O)[C@H](C)NC(=O)[C@H](CC(=O)O)NC(=O)[C@H](CC(=O)O)NC(=O)C2(CCCC=CCCCOC(=O)N3CC[C@@](C(=O)N[C@@H](Cc4ccccc4)C(=O)N[C@@H](Cc4csc5ccccc45)C(=O)N[C@@H](CCC(N)=O)C(N)=O)(C3)NC1=O)CCCC=CC[C@]1(CCCN1C(=O)CCCN(C)C)C(=O)N[C@@H](CC(=O)O)C(=O)N[C@@H](CC(C)(C)C)C(=O)N2 (stereo partly drawn) [I-1358, NdiMeButC-PL3-Asp-Npg-B5-Asp-Asp-Ala-Ala-Phe-Leu-PyrS2-Phe-BztA-Gln-NH2]
[1]; [3]
  IC50: 19 nM
[1]; read-out: beta-Catenin FP IC50
  IC50: 19 nM
[2]
  Solubility: 10 µM (≈ 19.8 µg/mL)

## CC(=O)N1CCC[C@]12CC=CCCCC1(CCCC=CCCCCCC[C@@](C)(C(=O)N[C@@H](Cc3ccsc3)C(=O)N[C@@H](Cc3csc4ccccc34)C(=O)N[C@@H](CCO)C(N)=O)NC(=O)[C@H](CC(C)C)NC(=O)[C@H](Cc3ccccc3)NC(=O)[C@H](C)NC(=O)[C@H](C)NC(=O)[C@H](CC(=O)O)NC(=O)[C@H](CC(=O)O)NC1=O)NC(=O)[C@H](CC(C)(C)C)NC(=O)[C@H](CC(=O)O)NC2=O (stereo partly drawn) [I-1197, Ac-PL3-Asp-Npg-B5-Asp-Asp-Ala-Ala-Phe-Leu-S8-3Thi-BztA-Hse-NH2]
[1]; read-out: beta-Catenin FP IC50
  IC50: 44 nM
[2]
  Solubility: 10 µM (≈ 18.5 µg/mL)

## CC(=O)N1CCC[C@]12CC=CCCCC1(CCCC=CCCCOC(=O)N3CC[C@@](C(=O)N[C@@H](Cc4ccc5ccccc5c4)C(=O)N[C@@H](Cc4csc5ccccc45)C(=O)N[C@@H](CO)C(N)=O)(C3)NC(=O)[C@H]([C@@H](C)O)NC(=O)[C@H](Cc3ccccc3)NC(=O)[C@H](C)NC(=O)[C@H](C)NC(=O)[C@H]([C@@H](C)O)NC(=O)[C@H](CC(=O)O)NC1=O)NC(=O)[C@H](CC(C)(C)C)NC(=O)[C@H](CC(=O)O)NC2=O (stereo partly drawn) [I-1270, Ac-PL3-Asp-Npg-B5-Asp-Thr-Ala-Ala-Phe-Thr-PyrS2-2NapA-BztA-Ser-NH2]
[1]; read-out: beta-Catenin FP IC50
  IC50: 3700 nM
[2]
  Solubility: 10 µM (≈ 18.9 µg/mL)

## CC(=O)N1CCC[C@]12CC=CCCCC1(CCCC=CCCCOC(=O)N3CC[C@@](C(=O)N[C@@H](Cc4ccsc4)C(=O)N[C@@H](Cc4csc5ccccc45)C(=O)N[C@@H](CCC(N)=O)C(N)=O)(C3)NC(=O)[C@H](CC(C)C)NC(=O)[C@H](Cc3ccccc3)NC(=O)[C@H](C)NC(=O)[C@H](C)NC(=O)[C@H](CC(=O)O)NC(=O)[C@H](CO)NC1=O)NC(=O)[C@H](CC(C)(C)C)NC(=O)[C@H](CC(=O)O)NC2=O (stereo partly drawn) [I-1209, Ac-PL3-Asp-Npg-B5-Ser-Asp-Ala-Ala-Phe-Leu-PyrS2-3Thi-BztA-Gln-NH2]
[1]; read-out: beta-Catenin FP IC50
  IC50: 479 nM
[2]; Solubility (uM)
  Solubility: 16 µM (≈ 30.2 µg/mL)

## CC(=O)N1CCC[C@]12CC=CCCCC1(CCCC=CCCCOC(=O)N3CC[C@@](C(=O)N[C@@H](Cc4ccsc4)C(=O)N[C@@H](Cc4csc5ccccc45)C(=O)N[C@@H](CCC(N)=O)C(N)=O)(C3)NC(=O)[C@H](CC(C)C)NC(=O)[C@H](Cc3ccccc3)NC(=O)C(C)(C)NC(=O)C(C)(C)NC(=O)[C@H](CC(=O)O)NC(=O)[C@H](CC(=O)O)NC1=O)NC(=O)[C@H](CC(C)(C)C)NC(=O)[C@H](CC(=O)O)NC2=O (stereo partly drawn) [I-1180, Ac-PL3-Asp-Npg-B5-Asp-Asp-Aib-Aib-Phe-Leu-PyrS2-3Thi-BztA-Gln-NH2]
[1]; [3]
  IC50: 87 nM
[1]; read-out: beta-Catenin FP IC50
  IC50: 87 nM
[2]
  Solubility: 31 µM (≈ 60.3 µg/mL)

## CC(=O)N1CCC[C@]12CC=CCCCC1(CCCC=CCCCCCC[C@@](C)(C(=O)N[C@@H](Cc3ccccc3Cl)C(=O)N[C@@H](Cc3csc4ccccc34)C(=O)N[C@@H](CO)C(N)=O)NC(=O)[C@H](CC(C)C)NC(=O)[C@H](Cc3ccccc3)NC(=O)[C@H](C)NC(=O)[C@H](C)NC(=O)[C@H](CC(=O)O)NC(=O)[C@H](CC(=O)O)NC1=O)NC(=O)[C@H](CC(C)(C)C)NC(=O)[C@H](CC(=O)O)NC2=O (stereo partly drawn) [I-1189, Ac-PL3-Asp-Npg-B5-Asp-Asp-Ala-Ala-Phe-Leu-S8-2C1F-BztA-Ser-NH2]
[1]; read-out: beta-Catenin FP IC50
  IC50: 94.5 nM
[2]
  Solubility: 10 µM (≈ 18.6 µg/mL)

## CC(=O)N1CCC[C@]12CC=CCCCC1(CCCC=CCCCOC(=O)N3CC[C@@](C(=O)N[C@@H](Cc4ccsc4)C(=O)N[C@@H](Cc4csc5ccccc45)C(=O)N[C@@H](CCC(N)=O)C(N)=O)(C3)NC(=O)[C@H](CC(C)C)NC(=O)[C@H](Cc3ccccc3)NC(=O)[C@H](C)NC(=O)[C@H](C)NC(=O)[C@H](CC(=O)O)NC(=O)[C@H](CCC(N)=O)NC1=O)NC(=O)[C@H](CC(C)(C)C)NC(=O)[C@H](CC(=O)O)NC2=O (stereo partly drawn) [I-1211, Ac-PL3-Asp-Npg-B5-Gln-Asp-Ala-Ala-Phe-Leu-PyrS2-3Thi-BztA-Gln-NH2]
[1]; read-out: beta-Catenin FP IC50
  IC50: 115 nM
[2]; Solubility (uM)
  Solubility: 11 µM (≈ 21.2 µg/mL)

## CC(=O)N1CCC[C@]12CC=CCCCC1(CCCC=CCCCCCC[C@@](C)(C(=O)N[C@@H](Cc3ccccc3Cl)C(=O)N[C@@H](Cc3csc4ccccc34)C(=O)N[C@@H](Cc3c[nH]nn3)C(N)=O)NC(=O)[C@H](CC(C)C)NC(=O)[C@H](Cc3ccccc3)NC(=O)[C@H](C)NC(=O)[C@H](C)NC(=O)[C@H](CC(=O)O)NC(=O)[C@H](CC(=O)O)NC1=O)NC(=O)[C@H](CC(C)(C)C)NC(=O)[C@H](CC(=O)O)NC2=O (stereo partly drawn) [I-1192, Ac-PL3-Asp-Npg-B5-Asp-Asp-Ala-Ala-Phe-Leu-S8-2C1F-BztA-4TriA-NH2]
[1]; read-out: beta-Catenin FP IC50
  IC50: 81.5 nM
[2]
  Solubility: 10 µM (≈ 19.1 µg/mL)

## CC(=O)N1CCC[C@]12CC=CCCCC1(CCCC=CCCCOC(=O)N3CC[C@@](C(=O)N[C@@H](Cc4ccsc4)C(=O)N[C@@H](Cc4csc5ccccc45)C(=O)N[C@@H](CCC(N)=O)C(N)=O)(C3)NC(=O)[C@H](CC(N)=O)NC(=O)[C@H](Cc3ccccc3)NC(=O)[C@H](C)NC(=O)[C@H](C)NC(=O)[C@H](CC(=O)O)NC(=O)[C@H](CCC(N)=O)NC1=O)NC(=O)[C@H](CC(C)(C)C)NC(=O)[C@H](CC(=O)O)NC2=O (stereo partly drawn) [I-1210, Ac-PL3-Asp-Npg-B5-Gln-Asp-Ala-Ala-Phe-Asn-PyrS2-3Thi-BztA-Gln-NH2]
[1]; read-out: beta-Catenin FP IC50
  IC50: 56 nM
[2]
  Solubility: 50 µM (≈ 96.6 µg/mL)

## CC(=O)N1CCC[C@]12CC=CCCCC1(CCCC=CCCCOC(=O)N3CC[C@@](C(=O)N[C@@H](Cc4ccccc4)C(=O)N[C@@H](Cc4csc5ccccc45)C(=O)N[C@@H](CCCCN)C(N)=O)(C3)NC(=O)[C@H](CC(C)C)NC(=O)[C@H](Cc3ccccc3)NC(=O)[C@H](C)NC(=O)[C@H](CCCCNC(C)C)NC(=O)[C@H]([C@@H](C)O)NC(=O)[C@H](CC(N)=O)NC1=O)NC(=O)[C@H](C)NC(=O)[C@H](CC(=O)O)NC2=O (stereo partly drawn) [I-1377, Ac-PL3-Asp-Ala-B5-Asn-Thr-iPrLys-Ala-Phe-Leu-PyrS2-Phe-BztA-Lys-NH2]
[1]; read-out: beta-Catenin FP IC50
  IC50: 1000 nM
[2]
  Solubility: 10 µM (≈ 19.4 µg/mL)

## CC(=O)N1CCC[C@]12CC=CCCCC1(CCCC=CCCCOC(=O)N3CC[C@@](C(=O)N[C@@H](Cc4ccccc4)C(=O)N[C@@H](Cc4csc5ccccc45)C(=O)N[C@@H](CCC(N)=O)C(N)=O)(C3)NC(=O)[C@H](CC(C)C)NC(=O)[C@H](Cc3ccccc3)NC(=O)[C@H](C)NC(=O)[C@H](CCCCNC(C)C)NC(=O)[C@H](CCC(N)=O)NC(=O)[C@H](CC(=O)O)NC1=O)NC(=O)[C@H](C)NC(=O)[C@H](CC(N)=O)NC2=O (stereo partly drawn) [I-1385, Ac-PL3-Asn-Ala-B5-Asp-Gln-iPrLys-Ala-Phe-Leu-PyrS2-Phe-BztA-Gln-NH2]
[1]; read-out: beta-Catenin FP IC50
  IC50: 1080 nM
[2]
  Solubility: 10 µM (≈ 19.7 µg/mL)

## CC(=O)N1CCC[C@]12CC=CCCCC1(CCCC=CCCCOC(=O)N3CC[C@@](C(=O)N[C@@H](Cc4ccccc4Cl)C(=O)N[C@@H](Cc4csc5ccccc45)C(=O)N[C@@H](CCC(N)=O)C(N)=O)(C3)NC(=O)[C@H](CC(C)C)NC(=O)[C@H](Cc3ccccc3)NC(=O)[C@H](C)NC(=O)[C@H](C)NC(=O)[C@H]([C@@H](C)O)NC(=O)[C@H](CC(=O)O)NC1=O)NC(=O)[C@H](CC1CCCCC1)NC(=O)[C@H](CC(=O)O)NC2=O (stereo partly drawn) [I-1176, Ac-PL3-Asp-Cha-B5-Asp-Thr-Ala-Ala-Phe-Leu-PyrS2-2C1F-BztA-Gln-NH2]
[1]; read-out: beta-Catenin FP IC50
  IC50: 169 nM
[2]
  Solubility: 10 µM (≈ 19.6 µg/mL)

## CC(=O)N1CCC[C@]12CC=CCCCC1(CCCC=CCCCOC(=O)N3CC[C@@](C(=O)N[C@@H](Cc4ccccc4Cl)C(=O)N[C@@H](Cc4csc5ccccc45)C(=O)N[C@H](C(N)=O)[C@@H](C)O)(C3)NC(=O)[C@H](CO)NC(=O)[C@H](Cc3ccccc3)NC(=O)[C@H](C)NC(=O)[C@H](C)NC(=O)[C@H](CC(=O)O)NC(=O)[C@H](CC(=O)O)NC1=O)NC(=O)[C@H](CC1CCCCC1)NC(=O)[C@H](CC(=O)O)NC2=O (stereo partly drawn) [I-1135, Ac-PL3-Asp-Cha-B5-Asp-Asp-Ala-Ala-Phe-Ser-PyrS2-2C1F-BztA-Thr-NH2]
[1]; read-out: beta-Catenin FP IC50
  IC50: 20 nM
[2]; Solubility (uM)
  Solubility: 39 µM (≈ 74.8 µg/mL)

## CC(=O)N1CCC[C@]12CC=CCCCC1(CCCC=CCCCOC(=O)N3CC[C@@](C(=O)N[C@H](Cc4ccccc4)C(=O)N[C@@H](Cc4csc5ccccc45)C(=O)N[C@@H](CCC(N)=O)C(N)=O)(C3)NC(=O)[C@H](CC(N)=O)NC(=O)[C@H](Cc3ccccc3)NC(=O)[C@H](C)NC(=O)[C@H](C)NC(=O)[C@H](CC(=O)O)NC(=O)[C@H](CC(=O)O)NC1=O)NC(=O)[C@H](CC(C)(C)C)NC(=O)[C@H](CC(=O)O)NC2=O (stereo partly drawn) [I-1346, PL3-Asp-Npg-B5-Asp-Asp-Ala-Ala-Phe-Asn-PyrS2-dPhe-BztA-Gln-NH2]
[2]
  Solubility: 50 µM (≈ 95.6 µg/mL)
